Experimental data published in patent US20180369143A1, “METAL COMPLEXED THERAPEUTIC AGENTS AND LIPID-BASED NANOPARTICULATE FORMULATIONS THEREOF” (BRITISH COLUMBIA CANCER AGENCY BRANCH, priority 2015, published 2018).
≈ marks a conversion by molar mass, not a printed value. Entries after “also recorded” stand apart in the source; their conditions may differ. Values belong to the molecule of their own block, whether it stands above or below them.

How the values were obtained:
U251 (glioblastoma line) = test: 72 h cytotoxicity, IN CELL Analyzer, U251 cells; format: cell-based, human
Experimental: The U251MG glioblastoma cell line (formerly known as U-373 MG) was originally obtained from American Type Culture Collection (Manassas, Va.) and was used for a maximum of fifteen passages. […] U87, U251MG^O, A549 and MDA231-BR cells were maintained in DMEM (Gibco) supplemented with 2 mM L-glutamine (Gibco) and 10% fetal bovine serum (Gibco). […] All cells were maintained at 37° C. and 5% CO2 The cells were seeded into 384 well plates and allowed to grow for 24 hrs and then treated as specified for 72 hours. To assess the cytotoxic effects of the indicated compounds in adherent cell lines, the cells were stained with Hoescht 33342 and ethidium homodimer I for total and dead cell counts, respectively. Twenty minutes later, the cells were imaged using an In Cell Analyzer 2200 and cell viability was measured based on viable nuclei count.

[1] = tested on: MDA-231BR (triple negative breast cancer line); test: 72 h cytotoxicity, IN CELL Analyzer, MDA-231BR cells; format: cell-based; conditions: copper+DDC
Experimental: (§1) For studies with DDC, the cell lines U87, and A549 were obtained from ATCC, HBEpC (Human Bronchial Epithelial Cells) was obtained from Cell Applications (San Deigo, Calif.) and MDA-231-BR was from the NIH/NCI. The U251MG glioblastoma cell line (formerly known as U-373 MG) was originally obtained from American Type Culture Collection (Manassas, Va.) and was used for a maximum of fifteen passages. Subsequently, the U251MG was obtained from Sigma-Aldrich (product number 09063001). […] Both cell lines are now being maintained as separate lines U251MG^O (original line) and U251MG^SA (Sigma-Aldrich). U87, U251MG^O, A549 and MDA231-BR cells were maintained in DMEM (Gibco) supplemented with 2 mM L-glutamine (Gibco) and 10% fetal bovine serum (Gibco). HBEpC were grown in bronchial/tracheal epithelial growth medium obtained from Cell Applications and were used for a maximum of three passages. […] Twenty minutes later, the cells were imaged using an In Cell Analyzer 2200 and cell viability was measured based on viable nuclei count. For the suspension cell line MV-4-11, cells were incubated with the PrestoBlue reagent (Life Technologies) at 37° C. and 5% CO2 for 1 hour, after which cell viability was evaluated based on metabolic activity as measured with the FLUOstar OPTIMA microplate reader (BMG Labtech).

A549 (lung cancer line) = test: 72 h cytotoxicity, A549 cells; format: cell-based, human
Experimental: as §1, with “(Sigma-Aldrich).” for “(Sigma-Aldrich). U87, U251MG^O, A549 and MDA231-BR cells were maintained in DMEM (Gibco) supplemented with 2 mM L-glutamine (Gibco) and 10% fetal bovine serum (Gibco). HBEpC were grown in bronchial/tracheal epithelial growth medium obtained from Cell Applications and were used for a maximum of three passages.”
(§2) The anticancer activity of clioquinol (CQ) in cancer lines through copper dependent and independent pathways was examined. […] Cell viability was assessed based on loss of plasma membrane integrity 72 hours following treatment. Total cell count and dead cell count were determined using Hoechst 33342 and ethidium homodimer staining, respectively. […]

[2] = tested on: normal human bronchial epithelial cells HBEpC; test: 72 h cytotoxicity, normal bronchial epithelial cells; format: cell-based
Experimental: as §1

[3] = Aqueous solubility of metal complexes (qualitative); format: physicochemical
U87 glioblastoma cells = test: cells; format: cell-based; conditions: for IC50: Homo sapiens, U-87 MG, absence of copper, 72 h
Experimental: For studies with DDC, the cell lines U87, and A549 were obtained from ATCC, HBEpC (Human Bronchial Epithelial Cells) was obtained from Cell Applications (San Deigo, Calif.) and MDA-231-BR was from the NIH/NCI. The U251MG glioblastoma cell line (formerly known as U-373 MG) was originally obtained from American Type Culture Collection (Manassas, Va.) and was used for a maximum of fifteen passages. Subsequently, the U251MG was obtained from Sigma-Aldrich (product number 09063001). […] Both cell lines are now being maintained as separate lines U251MG^O (original line) and U251MG^SA (Sigma-Aldrich). U87, U251MG^O, A549 and MDA231-BR cells were maintained in DMEM (Gibco) supplemented with 2 mM L-glutamine (Gibco) and 10% fetal bovine serum (Gibco). HBEpC were grown in bronchial/tracheal epithelial growth medium obtained from Cell Applications and were used for a maximum of three passages. All cells were maintained at 37° C. and 5% CO2 The cells were seeded into 384 well plates and allowed to grow for 24 hrs and then treated as specified for 72 hours. To assess the cytotoxic effects of the indicated compounds in adherent cell lines, the cells were stained with Hoescht 33342 and ethidium homodimer I for total and dead cell counts, respectively. Twenty minutes later, the cells were imaged using an In Cell Analyzer 2200 and cell viability was measured based on viable nuclei count. For the suspension cell line MV-4-11, cells were incubated with the PrestoBlue reagent (Life Technologies) at 37° C. and 5% CO2 for 1 hour, after which cell viability was evaluated based on metabolic activity as measured with the FLUOstar OPTIMA microplate reader (BMG Labtech).
Cytotoxicity results were obtained with an IN CELL™ Analyzer in U87 glioblastoma cells. Cell viability was assessed based on detection of plasma membrane integrity 72 hours following treatment. Total and dead cell counts were determined using Hoeschst 33342 and ethidium homodimer staining.

[4] = tested on: H460 (non-small cell lung cancer); test: 72-hour cytotoxicity assay, H460 cells; format: cell-based
MV-4-11 (leukemia) cells = test: 72 h cytotoxicity (PrestoBlue), MV-4-11 cells; format: cell-based, human
Experimental: as §1, with “(Sigma-Aldrich).” for “(Sigma-Aldrich). U87, U251MG^O, A549 and MDA231-BR cells were maintained in DMEM (Gibco) supplemented with 2 mM L-glutamine (Gibco) and 10% fetal bovine serum (Gibco). HBEpC were grown in bronchial/tracheal epithelial growth medium obtained from Cell Applications and were used for a maximum of three passages.”, “Labtech). […]” for “Labtech).”
as §2

[5] = tested on: MV-4-11, HCT116WT, HCT116B18 and HCT116B46 cells; test: Cytotoxicity IC50 comparison of CX5461 with metal salts in a cell panel; format: cell-based
Experimental: as §1, with “Labtech). […]” for “Labtech).”

[6] = Plasma elimination of CX5461, free versus liposomal; format: in vivo; conditions: within 1 hour of injection
Experimental: Cu(DDC)2 was measured by using Cu as a surrogate marker. Samples were diluted in 0.1% HNO3 and subsequently the Cu concentration was measured using AAS (AAnalyst600, Perkin Elmer) as described above. Plasma Cu was corrected using untreated CD-1 mouse plasma as a blank. […] All other compounds were measured using HPLC as summarized below using a Waters Alliance HPLC Module 2695 and photodiode array detector model 996 and Empower 2 Software. […] Similarly, the quantification of CX5461 was performed in acidified methanol to dissociate the complex and CX5461 was measured at 300 nm following separation on a Luna C18 column (5 μm, 4.6×150 mm). The mobile phase contained a 1:1.2 mixture of 0.1% TFA in water and 0.1% TFA in methanol. A 5 μL sample volume was injected, the flow rate was set at 1 mL/min and the column temperature was 35° C.

[7] = tested on: A2780-S (human ovarian carcinoma, platinum sensitive); test: 72 h cytotoxicity, IN CELL Analyzer, A2780-S cells; format: cell-based
Experimental: FIG. 26 Clioquinol metal complex cytotoxicity in A2780-S (ovarian cancer) cells. (A) Cytotoxicity curves for CQ (-●-), Cu(CQ)2 (-▪-) and Zn(CQ)2 (-♦-) were obtained using the INCELL analyzer where viability was assessed based on loss of plasma membrane integrity 72 hours following treatment; i.e., total cell count and dead cell count were determined using Hoechst 33342 and ethidium homodimer staining, respectively. Results are given as mean ±SEM (B) IC50 values of CQ and metal complexes in A2780-S (IC50±95% CI).
The anticancer activity of clioquinol (CQ) in cancer lines through copper dependent and independent pathways was examined. Both CQ (-●-) and Cu(CQ)2 (-▪-) were dissolved in DMSO and diluted to a final concentration of <0.5% (at higher concentrations (>100 μM) of Cu(CQ)2, precipitated drug could be seen under the microscope). A2780-S (human ovarian carcinoma, platinum sensitive), A2780-CP (human ovarian carcinoma, platinum insensitive) as well as A549 (human lung cancer), U251 (human glioblastoma) cytotoxicity curves (FIG. 22 A-D) were obtained with the IN CELL Analyzer 2200. Cell viability was assessed based on loss of plasma membrane integrity 72 hours following treatment. Total cell count and dead cell count were determined using Hoechst 33342 and ethidium homodimer staining, respectively. […]

[8] = tested on: A2780-CP (human ovarian carcinoma, platinum insensitive); test: 72 h cytotoxicity, IN CELL Analyzer, A2780-CP cells; format: cell-based
Experimental: The anticancer activity of clioquinol (CQ) in cancer lines through copper dependent and independent pathways was examined. Both CQ (-●-) and Cu(CQ)2 (-▪-) were dissolved in DMSO and diluted to a final concentration of <0.5% (at higher concentrations (>100 μM) of Cu(CQ)2, precipitated drug could be seen under the microscope). A2780-S (human ovarian carcinoma, platinum sensitive), A2780-CP (human ovarian carcinoma, platinum insensitive) as well as A549 (human lung cancer), U251 (human glioblastoma) cytotoxicity curves (FIG. 22 A-D) were obtained with the IN CELL Analyzer 2200. Cell viability was assessed based on loss of plasma membrane integrity 72 hours following treatment. Total cell count and dead cell count were determined using Hoechst 33342 and ethidium homodimer staining, respectively. The CQ cytotoxicity curve in MV-4-11 (human leukemia) was generated using PrestoBlue reagent to establish cell viability through metabolic activity.

[9] = Solubility of quercetin in water and HEPES buffer saline; format: physicochemical
Experimental: (or 22° C.) for 60 minutes in 2 mL of the respective buffers. […] The time points for dissolution were 5, 10, 15, 30 and 60 minutes.
(38 μg/mL). A supersaturated solution of quercetin-HBS remained stable over a one-hour period once removed from heat.

SMILES: CCN(CC)C(=S)[S-].CCN(CC)C(=S)[S-].[Cu+2] [Cu(DDC)2]
- IC50 (U251 (glioblastoma line); copper+DDC): 345 nM
- IC50 [1]: 329 nM
- IC50 (A549 (lung cancer line); copper+DDC): 880 nM
- activity against normal cells [2]: little activity
- solubility in water / aqueous solution [3]: highly insoluble; also recorded: almost completely insoluble

SMILES: CCN(CC)C(=S)SSC(=S)N(CC)CC [DSF, Disulfiram]
- shift in cytotoxicity in the presence of copper (U87 glioblastoma cells): 2 orders of magnitude
- IC50 (U87 glioblastoma cells): > 10000 nM

- compound removed from circulation [6]: 96%
SMILES: Cc1cnc(CNC(=O)c2c(=O)c3ccc(N4CCCN(C)CC4)nc3n3c2sc2ccccc23)cn1 [CX5461]
- effect of equimolar copper on anti-cancer activity [4]: does not alter
- effect of equimolar copper on anti-cancer activity (MV-4-11 (leukemia) cells; 72 h): does not alter
- activity (IC50) versus low pH preparation of metal-free compound ([5]; combined with CuSO4, dissolution at pH 7.4): statistically similar
- activity (IC50) versus low pH preparation of metal-free compound ([5]; combined with ZnSO4, dissolution at pH 7.4): statistically similar

SMILES: CCN(CC)C(=S)S [DDC, Diethyldithiocarbamate]
- IC50 (U87 glioblastoma cells): > 10000 nM

SMILES: Oc1c(I)cc(Cl)c2cccnc12 [CQ, Clioquinol]
- copper dependence of CQ activity (U251 (glioblastoma line)): copper independent
- copper dependence of CQ activity (A549 (lung cancer line)): copper dependant
- copper dependence of CQ activity (MV-4-11 (leukemia) cells): copper independent
- copper dependence of CQ activity [7]: copper dependant
- copper dependence of CQ activity [8]: copper dependant

SMILES: O=c1c(O)c(-c2ccc(O)c(O)c2)oc2cc(O)cc(O)c12 [quercetin, Quercetin]
- solubility at 60 min ([9]; 60 °C, water, thermodynamic from solid): 12.3 µg/mL (≈ 40.8 µM)
- solubility ([9]; 60 min): 38 µg/mL (≈ 126 µM)
- solubility ([9]; HBS, room temperature): 7.78 µg/mL (≈ 25.7 µM)
